Experimental data published in US20260191825A1, “CONTRACEPTIVE COMPOUNDS AND DOSING FOR THE SAME” (YourChoice Therapeutics, Inc., priority 2024, published 2026).
Entries after “also recorded” stand apart in the source; their conditions may differ.

Tests used:
mice [1] = test: Repeat dose study in mice (sperm counts); type: in vivo, mouse
[2] = system: bacterial reverse mutation (Ames); test: In vitro bacterial reverse mutation (Ames) test; type: cell-based; conditions: in vitro bacterial assay, highest doses tested
CYP2C9 = CYP2C9 (Homo sapiens, UniProt P11712); test: In vitro CYP inhibition (direct and time-dependent), CYP2C9; type: in vitro ADME
From the text: (§1) However, the likelihood of drug interactions is low since healthy participants who meet eligibility criteria will be enrolled in this Phase 1b/2a clinical trial. An allowance for select concomitant medications may be considered for select participants at the discretion of the investigator and/or sponsor if drug profiles are not anticipated to interact with Compound A. Such medications may include, but will not be limited to paracetamol or ibuprofen as assessed by both the PI and the Sponsor. […] Additional precautions to avoid grapefruit, pomegranates, star fruit, or Seville oranges for 7 days prior to admission, and juices and products containing these fruits for the duration of the study will be taken.

rat = test: Rat repeat daily dosing at non-tolerated doses; type: in vivo
Method: These doses convert to respective Human Equivalent Doses (HEDs) of ≥1,612.8 mg and ≥444.8 mg fixed dose based on 80 kg body weight. […] Safety laboratory analyses include serum chemistry, hematology, coagulation, and lipid panel.

mammalian cell = test: Chromosomal aberration assay (in vitro mammalian cell assay); type: cell-based; conditions: highest doses tested
[3] = Phase 1b MAD study (Part 1), 28-day dosing, PK; type: in vivo, human; conditions: for Cmax / AUC0-24 / AUC(0-t) / AUC(0-inf) / half-life: mean; for Tmax: median;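 as to all read-outs here: PK profiles sampled across 24 h on Day 1 and Day 28 while participants stayed overnight in the clinical research unit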
From the text: • Part 1: Participants will have overnight stays in the clinical research unit in order to monitor their wellbeing and obtain 24-hour PK profiles on Day 1 and Day 28.

[4] = Metabolite identification in pooled hepatocytes (all species); type: in vitro ADME, human, monkey, mouse, rat, rabbit, dog
From the text: Overall, each metabolite was present at less than 10% of the recoverable metabolic profile across all species. The rat produced 6 of the 8 quantified human metabolites and the dog produced 4 of the 8 human metabolites. […] Because the presence of these metabolites was ≤10% of the recoverable metabolic profile, and because all other human metabolites were represented in either the rat or dog, these 2 species were considered relevant species to assess toxicity.

male Beagle dogs = test: Dog single dose cardiovascular study; conditions: male Beagle dogs, single dose 2.5, 5 or 25 mg/kg
[5] = Dog single dose cardiovascular study; conditions: male, Beagle, dog, in vivo
sperm counts = test: Phase 1b MAD study (Part 1), 28-day dosing, sperm counts; type: in vivo, human; conditions: men dosed for 4 weeks (28 oral doses) at doses of up to 90 mg
From the text: The main underlying reason provided by experts in the male contraceptive field is the dosing duration. Dosing for 28 days in men only covers approximately one third of the entire cycle from sperm production to sperm release, which takes 85 days in men (71 days for one spermatogenic cycle and 14 days for epididymal transit). […] Therefore, the dosing period will be extended from 28 days to 90 days with the anticipation that this will show the intended effect (reduction in sperm concentration).
Cohort 4 (receiving 180 mg) is currently being studied.

[6] = Phase 1a single ascending oral dose study, PK; conditions: male, human, in vivo, fasted, geometric mean; for AUC(0-t): po
Method: Cohort 1 first received 10 mg, and after a 5-week washout period received 30 mg.

CYP2D6 = CYP2D6 (Homo sapiens, UniProt P10635); test: In vitro CYP inhibition (direct and time-dependent), CYP2D6; type: in vitro ADME
From the text: as §1

mice [7] = test: Mating trials with mice; type: in vivo, mouse; conditions: 10 mg/kg/day for 4 weeks
male mice = test: Mouse single dose non-GLP study; type: in vivo
[8] = In vitro molar extinction coefficient assay; type: physicochemical; conditions: UV light
From the text: As a result, participants will be advised to minimize exposure to sunlight, wear sunglasses and clothing that minimizes exposure to sunlight, and use sun cream on exposed areas when going outdoors during the 28-Day dosing period and until 10 days post last dose.

CYP2C8 = CYP2C8 (Homo sapiens, UniProt P10632); test: In vitro CYP inhibition (direct and time-dependent), CYP2C8; type: in vitro ADME
From the text: as §1

[9] = In vitro stability in liver microsomes (human); type: in vitro ADME
Method: Respective half-lives (T1/2) were 9.5 hours (human), 23.1 hours (monkeys), >23.1 hours (mice), >23.1 hours (rats), 19.6 hours (rabbits), and >23.1 hours (dogs).

[10] = male, human, in vivo, oral, 30 mg, […] mg once daily, Day 28
[11] = male, human, in vivo, oral, 15 mg once daily, Day 28

Chain of CYP2D6 (P10635 whole entry): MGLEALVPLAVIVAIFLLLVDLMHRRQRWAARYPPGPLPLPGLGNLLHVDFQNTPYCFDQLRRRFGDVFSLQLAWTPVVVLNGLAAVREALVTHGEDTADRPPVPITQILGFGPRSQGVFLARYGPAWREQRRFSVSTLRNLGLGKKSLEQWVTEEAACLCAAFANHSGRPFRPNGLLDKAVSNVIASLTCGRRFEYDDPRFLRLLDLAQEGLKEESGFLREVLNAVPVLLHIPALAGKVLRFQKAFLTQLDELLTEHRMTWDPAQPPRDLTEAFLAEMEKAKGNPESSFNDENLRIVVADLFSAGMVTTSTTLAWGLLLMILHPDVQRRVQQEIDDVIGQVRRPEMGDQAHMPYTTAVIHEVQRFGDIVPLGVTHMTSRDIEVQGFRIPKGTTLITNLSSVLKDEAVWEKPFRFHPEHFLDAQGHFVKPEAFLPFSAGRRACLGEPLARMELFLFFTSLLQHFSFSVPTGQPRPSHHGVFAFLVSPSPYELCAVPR
Chain of CYP2C9 (P11712 whole entry): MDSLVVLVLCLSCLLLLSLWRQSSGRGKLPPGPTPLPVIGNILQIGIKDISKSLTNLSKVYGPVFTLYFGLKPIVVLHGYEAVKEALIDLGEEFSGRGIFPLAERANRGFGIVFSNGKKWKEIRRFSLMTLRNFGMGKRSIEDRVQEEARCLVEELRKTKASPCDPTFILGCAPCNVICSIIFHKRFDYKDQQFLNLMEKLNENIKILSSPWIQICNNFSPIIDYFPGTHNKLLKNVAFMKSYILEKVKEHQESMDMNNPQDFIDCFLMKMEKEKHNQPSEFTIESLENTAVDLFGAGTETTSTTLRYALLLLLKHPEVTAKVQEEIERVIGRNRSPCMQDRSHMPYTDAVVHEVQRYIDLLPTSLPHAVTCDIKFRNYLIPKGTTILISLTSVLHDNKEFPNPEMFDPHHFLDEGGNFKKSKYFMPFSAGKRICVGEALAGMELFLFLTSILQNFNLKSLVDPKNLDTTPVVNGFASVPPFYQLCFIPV
Chain of CYP2C8 (P10632 whole entry): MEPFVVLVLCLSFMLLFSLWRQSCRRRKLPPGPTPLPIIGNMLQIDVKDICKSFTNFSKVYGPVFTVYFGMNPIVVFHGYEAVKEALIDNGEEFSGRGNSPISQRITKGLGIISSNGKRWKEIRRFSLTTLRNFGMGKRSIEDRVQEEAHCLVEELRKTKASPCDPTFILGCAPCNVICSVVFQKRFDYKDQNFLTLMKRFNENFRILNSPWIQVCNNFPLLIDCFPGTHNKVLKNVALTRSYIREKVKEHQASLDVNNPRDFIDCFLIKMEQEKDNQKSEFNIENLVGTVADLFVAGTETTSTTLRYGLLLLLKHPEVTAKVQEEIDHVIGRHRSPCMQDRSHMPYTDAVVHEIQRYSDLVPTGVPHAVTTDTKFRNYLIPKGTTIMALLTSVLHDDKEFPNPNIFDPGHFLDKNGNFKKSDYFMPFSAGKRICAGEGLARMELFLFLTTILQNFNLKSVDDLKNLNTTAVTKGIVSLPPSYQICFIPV

Q: What does the source list for Cc1ccc(C2=CC(C)(C)Oc3ccc(-c4ccc(-c5ccc(C(=O)O)cc5)[nH]4)cc32)cc1 [Compound A]?
A: Reversibility of antispermatogenic effect (mice [1]; mice): ≤ 1 spermatogenic cycle; Lowest dose with decreases in sperm counts (mice [1]; mouse, repeat dose for 4 weeks): 2.5 mg/kg/day; Genotoxicity: Ames [2]: not genotoxic; also recorded: no genotoxic potential; also recorded: Clean; IC50 (CYP2C9; CYP2C9): 14.6 µM; Time-dependent inhibition (TDI) (CYP2C9; CYP2C9, 0.3 to 100 μM): no TDI potential; HED of not tolerated dose, fixed dose based on 80 kg body weight (rat): ≥ 1,612.8 mg; Not tolerated repeat daily dose (death and morbidity) (rat): ≥ 125 mg/kg/day; Systems affected at non-tolerated doses (rat): hematopoietic, hepatic, adrenal and lymphoid systems were affected; Genotoxicity: chromosomal aberration (mammalian cell): not genotoxic; also recorded: no genotoxic potential; also recorded: Clean; Cmax ([3]; 15 mg once daily, Day 1): 247.8 ng/mL; AUC0-24 ([3]; 15 mg once daily, Day 28): 6,414 h*ng/mL; AUC0-24 ([3]; 90 mg once daily, Day 1): 14,091/ h*ng/mL; Cmax ([3]; 90 mg once daily, Day 1): 794.3 ng⁻¹ mL⁻¹; AUC0-24 ([3]; 90 mg once daily, Day 28): 22,710/ h*ng/mL; Cmax ([3]; 90 mg once daily, Day 28): 1,165/ ng/mL; AUC0-24 ([3]; […] mg once daily, Day 1): 10,060/ h*ng/mL; Cmax ([3]; […] mg once daily, Day 1): 544.5 ng⁻¹ mL⁻¹; AUC0-24 ([3]; […] mg once daily, Day 28): 9,585/ h*ng/mL; Cmax ([3]; […] mg once daily, Day 28): 551.5 ng⁻¹ mL⁻¹; AUC(0-t) ([3]; male, human, in vivo, oral, 15 mg, 15 mg once daily, Day 1, read-out: AUC0-24): 4850 ng·h/mL; AUC(0-t) ([3]; male, human, in vivo, oral, 15 mg, 15 mg once daily, Day 1, read-out: AUC0-last): 4850 ng·h/mL; Cmax ([3]; male, human, in vivo, oral, 15 mg, 15 mg once daily, Day 1, read-out: Cmax): 275 ng/mL; AUC(0-t) ([3]; male, human, in vivo, oral, 15 mg, 15 mg once daily, Day 28, read-out: AUC0-24): 6420 ng·h/mL; AUC(0-t) ([3]; male, human, in vivo, oral, 15 mg, 15 mg once daily, Day 28, read-out: AUC0-last): 24700 ng·h/mL; Cmax ([3]; male, human, in vivo, oral, 15 mg, 15 mg once daily, Day 28, read-out: Cmax): 348 ng/mL; AUC(0-t) ([3]; male, human, in vivo, oral, 30 mg, 30 mg once daily, Day 1, read-out: AUC0-24): 10100 ng·h/mL; AUC(0-t) ([3]; male, human, in vivo, oral, 30 mg, 30 mg once daily, Day 1, read-out: AUC0-last): 10100 ng·h/mL; Cmax ([3]; male, human, in vivo, oral, 30 mg, 30 mg once daily, Day 1, read-out: Cmax): 544 ng/mL; AUC(0-t) ([3]; male, human, in vivo, oral, 30 mg, 30 mg once daily, Day 28, read-out: AUC0-24): 9580 ng·h/mL; AUC(0-t) ([3]; male, human, in vivo, oral, 30 mg, 30 mg once daily, Day 28, read-out: AUC0-last): 36100 ng·h/mL; Cmax ([3]; male, human, in vivo, oral, 30 mg, 30 mg once daily, Day 28, read-out: Cmax): 552 ng/mL; Tmax ([3]; male, human, in vivo, oral, 30 mg, 30 mg once daily, Day 28): 6 h; AUC(0-inf) [3, 10]: 36400 ng·h/mL; half-life [3, 10]: 28.9 h; AUC(0-t) ([3]; male, human, in vivo, oral, 90 mg, 90 mg once daily, Day 1, read-out: AUC0-24): 14100 ng·h/mL; AUC(0-t) ([3]; male, human, in vivo, oral, 90 mg, 90 mg once daily, Day 1, read-out: AUC0-last): 14100 ng·h/mL; Cmax ([3]; male, human, in vivo, oral, 90 mg, 90 mg once daily, Day 1, read-out: Cmax): 794 ng/mL; Tmax ([3]; male, human, in vivo, oral, 90 mg, 90 mg once daily, Day 1): 6 h; AUC(0-t) ([3]; male, human, in vivo, oral, 90 mg, 90 mg once daily, Day 28, read-out: AUC0-24): 22700 ng·h/mL; Cmax ([3]; male, human, in vivo, oral, 90 mg, 90 mg once daily, Day 28, read-out: Cmax): 1160 ng/mL; AUC(0-inf) [3, 11]: 27500 ng·h/mL; half-life [3, 11]: 35.8 h; Metabolites yielded by biotransformation ([4]; 10 μM, pooled hepatocytes): 10 metabolites; Human metabolites produced (of the 8) ([4]; dog hepatocytes): 4; Quantified human metabolites produced (of the 8) ([4]; rat hepatocytes): 6; Main outcomes: dog cardiovascular (effects) (male Beagle dogs): no effects; also recorded: Clean; NOAEL [5]: 25 mg/kg; Effect on sperm counts (sperm counts): not sufficient to decrease sperm counts; also recorded: firm evidence of sperm reduction has not been observed; also recorded: have not been replicated; AUC(0-t) ([6]; 10 mg, single oral dose 10 mg, read-out: AUC0-24): 2380 ng·h/mL; AUC(0-t) ([6]; 10 mg, single oral dose 10 mg, read-out: AUC0-last): 8180 ng·h/mL; AUC(0-t) ([6]; 30 mg, single oral dose 30 mg, read-out: AUC0-24): 3520 ng·h/mL; AUC(0-t) ([6]; 30 mg, single oral dose 30 mg, read-out: AUC0-last): 12400 ng·h/mL; AUC(0-t) ([6]; 90 mg, single oral dose 90 mg, read-out: AUC0-24): 8430 ng·h/mL; AUC(0-t) ([6]; 90 mg, single oral dose 90 mg, read-out: AUC0-last): 26300 ng·h/mL; AUC(0-t) ([6]; 180 mg, single oral dose 180 mg, read-out: AUC0-24): 27300 ng·h/mL; AUC(0-t) ([6]; 180 mg, single oral dose 180 mg, read-out: AUC0-last): 73400 ng·h/mL; AUC(0-inf) ([6]; single oral dose 10 mg): 9560 ng·h/mL; Cmax ([6]; single oral dose 10 mg): 131 ng/mL; half-life ([6]; single oral dose 10 mg): 53.5 h; AUC(0-inf) ([6]; single oral dose 30 mg): 12900 ng·h/mL; Cmax ([6]; single oral dose 30 mg): 200 ng/mL; half-life ([6]; single oral dose 30 mg): 61.7 h; AUC(0-inf) ([6]; single oral dose 90 mg): 26800 ng·h/mL; Cmax ([6]; single oral dose 90 mg): 472 ng/mL; half-life ([6]; single oral dose 90 mg): 71.3 h; AUC(0-inf) ([6]; single oral dose 180 mg): 75400 ng·h/mL; Cmax ([6]; single oral dose 180 mg): 1750 ng/mL; half-life ([6]; single oral dose 180 mg): 76.3 h; IC50 (CYP2D6; CYP2D6): > 100 µM; Time-dependent inhibition (TDI) (CYP2D6; CYP2D6, 0.3 to 100 μM): NADPH-independent time-dependent inhibition; Complete recovery of fertility after cessation of dosing (mice [7]): 6-10 weeks; Infertility (based on the number of viable embryos) (mice [7]): 99%; Tolerated single dose (highest dose tested) (male mice; male mice, non-GLP study): 1,000 mg/kg; HED of tolerated single dose (male mice; mice, 1,000 mg/kg): 81.3 mg/kg; Phototoxicity potential [8]: potential to cause phototoxicity; IC50 (CYP2C8; CYP2C8): 8.37 µM; Time-dependent inhibition (TDI) (CYP2C8; CYP2C8, 0.3 to 100 μM): no TDI potential; Half-life (T1/2) in microsomes [9]: 9.5 h
